The target in series [1] is T1, EcFumA (Escherichia coli, UniProt P0AC33).
T1 sequence (P0AC33 2-548): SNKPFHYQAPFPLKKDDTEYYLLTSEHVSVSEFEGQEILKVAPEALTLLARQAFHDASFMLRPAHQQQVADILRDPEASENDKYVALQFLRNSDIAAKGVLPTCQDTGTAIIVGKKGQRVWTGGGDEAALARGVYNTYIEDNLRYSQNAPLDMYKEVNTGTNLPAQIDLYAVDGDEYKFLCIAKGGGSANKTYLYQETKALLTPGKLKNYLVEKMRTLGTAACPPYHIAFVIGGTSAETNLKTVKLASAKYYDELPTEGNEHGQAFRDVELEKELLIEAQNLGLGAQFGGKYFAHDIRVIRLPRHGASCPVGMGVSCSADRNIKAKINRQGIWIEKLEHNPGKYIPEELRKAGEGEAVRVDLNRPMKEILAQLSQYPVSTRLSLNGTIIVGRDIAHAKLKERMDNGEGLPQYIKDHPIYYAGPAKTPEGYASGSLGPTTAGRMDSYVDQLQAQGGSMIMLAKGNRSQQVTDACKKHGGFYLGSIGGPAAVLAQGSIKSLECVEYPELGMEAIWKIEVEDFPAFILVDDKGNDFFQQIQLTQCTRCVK
Description: spectrophotometric initial velocity. It is filed as biochemical.

Series [2] deals with T2, PfFHΔ40 (PfFΔ40) (Plasmodium falciparum, UniProt Q8I2N6).
T2 sequence (Q8I2N6 41-681): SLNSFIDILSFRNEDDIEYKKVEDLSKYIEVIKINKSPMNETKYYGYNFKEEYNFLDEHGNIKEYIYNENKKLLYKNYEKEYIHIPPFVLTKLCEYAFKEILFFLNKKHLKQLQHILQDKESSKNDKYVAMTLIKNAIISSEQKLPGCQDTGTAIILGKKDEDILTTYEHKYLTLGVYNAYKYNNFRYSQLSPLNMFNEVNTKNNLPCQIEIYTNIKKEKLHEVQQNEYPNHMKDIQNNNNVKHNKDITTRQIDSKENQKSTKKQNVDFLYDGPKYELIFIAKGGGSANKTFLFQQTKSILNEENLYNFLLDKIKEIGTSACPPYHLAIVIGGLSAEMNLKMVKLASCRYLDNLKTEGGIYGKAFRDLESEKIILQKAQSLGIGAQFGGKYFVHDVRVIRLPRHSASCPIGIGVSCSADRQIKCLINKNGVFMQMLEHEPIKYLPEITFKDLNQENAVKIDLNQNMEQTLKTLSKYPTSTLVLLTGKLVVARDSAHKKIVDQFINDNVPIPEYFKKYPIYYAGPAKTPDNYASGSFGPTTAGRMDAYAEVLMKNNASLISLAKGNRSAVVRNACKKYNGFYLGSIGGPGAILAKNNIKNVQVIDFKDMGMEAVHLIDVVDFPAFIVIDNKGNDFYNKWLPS
As to the kind of experiment: spectrophotometric initial velocity. It is filed as biochemical.

For series [3], the target named is T3, EcFumC (Escherichia coli, UniProt P05042).
T3 sequence (P05042 1-467): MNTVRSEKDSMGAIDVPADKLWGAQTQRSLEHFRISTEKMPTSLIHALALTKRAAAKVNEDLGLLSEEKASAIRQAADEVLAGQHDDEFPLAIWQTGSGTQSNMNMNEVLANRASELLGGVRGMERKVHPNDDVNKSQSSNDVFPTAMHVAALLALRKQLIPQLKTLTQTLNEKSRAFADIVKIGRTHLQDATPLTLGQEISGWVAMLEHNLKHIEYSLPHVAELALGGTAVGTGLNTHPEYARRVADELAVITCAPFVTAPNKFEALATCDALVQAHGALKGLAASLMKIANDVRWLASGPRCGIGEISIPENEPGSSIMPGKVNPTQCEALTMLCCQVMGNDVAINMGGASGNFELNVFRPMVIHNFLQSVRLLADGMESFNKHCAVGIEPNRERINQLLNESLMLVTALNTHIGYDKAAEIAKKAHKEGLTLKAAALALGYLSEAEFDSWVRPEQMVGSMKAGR
As to the kind of experiment: spectrophotometric initial velocity. The class given is biochemical.

Series [4] concerns the target T2, PfFHΔ40 (PfFΔ40). Description: spectrophotometric initial velocity, global fit to competitive model. It is filed as biochemical.
For series [5], the target named is T2, PfFHΔ40 (PfFΔ40). As to the kind of experiment: spectrophotometric initial velocity, Michaelis-Menten fit. The settings on record: 50 mM Tris-HCl pH 8.5, 37 °C.
Substrate in series [6]: C/C(=C\C(=O)O)C(=O)O
As to the kind of experiment: purified protein. The settings on record: 50 mM Tris-HCl pH 8.5, 37 °C.

Substrate in series [7]: O=C(O)C[C@H](O)C(=O)O
As to the kind of experiment: purified protein. The settings on record: 50 mM Tris-HCl pH 8.5, 37 °C.

Here are results for four molecules from doi:10.1101/158956v2 (biorxiv, 2017).

As usually defined, the Ki is a dissociation constant, usually derived from enzyme kinetics or from competition with a known ligand. Read a high Ki as weaker binding. For orientation: Km means the concentration of substrate that gives half-maximal velocity.

Regarding `O=C(O)C(O)C(O)C(=O)O` (stereo not drawn) [meso-tartrate], the Ki stood at 625 µM in series [1], 114 ± 17 µM in series [2] and 652 µM in series [3].
In the case of `O=C(O)CC(S)C(=O)O` (racemic) [DL-mercaptosuccinic acid], the Ki is 2.9 ± 0.22 µM in series [1] and 0.548 ± 0.046 µM in series [4].
Consider `O=C(O)/C=C/C(=O)O` [fumarate], for which the Km in series [5] came to 2600 ± 300 µM.

B1: PfFHΔ40 (PfFΔ40) (Plasmodium falciparum 3D7) (protein)
chain: SLNSFIDILSFRNEDDIEYKKVEDLSKYIEVIKINKSPMNETKYYGYNFKEEYNFLDEHGNIKEYIYNENKKLLYKNYEKEYIHIPPFVLTKLCEYAFKEILFFLNKKHLKQLQHILQDKESSKNDKYVAMTLIKNAIISSEQKLPGCQDTGTAIILGKKDEDILTTYEHKYLTLGVYNAYKYNNFRYSQLSPLNMFNEVNTKNNLPCQIEIYTNIKKEKLHEVQQNEYPNHMKDIQNNNNVKHNKDITTRQIDSKENQKSTKKQNVDFLYDGPKYELIFIAKGGGSANKTFLFQQTKSILNEENLYNFLLDKIKEIGTSACPPYHLAIVIGGLSAEMNLKMVKLASCRYLDNLKTEGGIYGKAFRDLESEKIILQKAQSLGIGAQFGGKYFVHDVRVIRLPRHSASCPIGIGVSCSADRQIKCLINKNGVFMQMLEHEPIKYLPEITFKDLNQENAVKIDLNQNMEQTLKTLSKYPTSTLVLLTGKLVVARDSAHKKIVDQFINDNVPIPEYFKKYPIYYAGPAKTPDNYASGSFGPTTAGRMDAYAEVLMKNNASLISLAKGNRSAVVRNACKKYNGFYLGSIGGPGAILAKNNIKNVQVIDFKDMGMEAVHLIDVVDFPAFIVIDNKGNDFYNKWLPS
Take B1: the Km in series [6] was 3200 ± 300 µM; in series [7] it was 1200 ± 100 µM.
